Test results published in patent publication US10000456B2, “Polycyclic compounds as lysophosphatidic acid receptor antagonists” (AMIRA PHARMACEUTICALS, INC., priority 2009, dated 2018).

What was measured:
[1] = test system: bleomycin-induced lung fibrosis; experiment: Bleomycin-induced lung fibrosis model in mice; assay type: in vivo; details: acute setting (3 day)
Description: Female C57Bl/6 mice (Harlan, 25-30 g) are housed 4 per cage, given free access to food and water and allowed to acclimate for at least 7 days prior to test initiation. After the habituation phase, mice are lightly anesthetized with isoflurane (5% in 100% O2) and administered with bleomycin sulfate (0.01-5 U/kg, Henry Schein) via intratracheal instillation (Cuzzocrea, S. et al., Am. J. Physiol. Lung. Cell. Mol. Physiol., 292(5):[…]-[…] (Epub Jan. 12, 2007)). Mice are returned to their cages and monitored daily for the duration of the experiment. Test compound or vehicle is delivered p.o., i.p. or s.c. daily. The route and frequency of dosing is based on previously determined pharmacokinetic properties. […] BALF is analyzed for concentrations of inflammatory, pro-fibrotic and tissue injury biomarkers including transforming growth factor 131, hyaluronic acid, tissue inhibitor of metalloproteinase-1, matrix matelloproteinase-7, connective tissue growth factor and lactate dehydrogenase activity, using commercially available ELISA. […] Total cell counts are then obtained using a HEMAVET® hematology system (Drew Scientific, Wayne, Pa.) and differential cells counts are determined using Shandon cytospin (Thermo Scientific, Waltham, Mass.). […] The data are plotted using GraphPad Prism and statistical differences between groups determined.

[2] = test system: A2058 human melanoma cells; experiment: LPA1 chemotaxis assay; assay type: cell-based; details: LPA 100 nM, read-out: IC50, inhibition of LPA-driven chemotaxis
Protocol: Chemotaxis of the A2058 human melanoma cells was measured using the Neuroprobe CHEMOTX® System plates ([…], 5.7 mm diameter sites). The filter sites were coated with 0.001% fibronectin (Sigma) in 20 mM Hepes, pH 7.4 and allowed to dry. A2058 cells were serum-starved for 24 hours, then harvested with Cell Stripper and resuspended in DMEM containing 0.1% fatty-acid-free bovine serum albumin (BSA) to a concentration of 1×10^6/ml. Cells were mixed with an equal volume of test compound (2×) in DMEM containing 0.1% fatty-acid-free BSA and incubated at 37° C. for 15 minutes. LPA (100 nM in DMEM containing 0.1% fatty-acid-free BSA) or vehicle was added to each well of the lower chamber and 50 μl of the cell suspension/test compound mix was applied to the upper portion of the CHEMOTX® plate. Plates were incubated at 37° C. for three hours and then the cells removed from the upper portion by rinsing with PBS and scraping. The filter was dried then stained with HEMA 3® Staining System (Fisher Scientific). The absorbance of the filter was read at 590 nm and IC50s were determined using SYMYX® Assay Explorer.

human LPA1 = biological target: T1, human LPA1 (Homo sapiens, UniProt Q92633); experiment: LPA1 calcium flux assay (HLPA1 Ca Flux); assay type: cell-based; details: CHO cells expressing human LPA1, stimulated with 10 nM LPA
T1 construct: the full-length cDNA for human LPA1 was obtained by PCR of the reverse transcription reaction; expressed in transfected cells
T1 sequence (Q92633 whole entry): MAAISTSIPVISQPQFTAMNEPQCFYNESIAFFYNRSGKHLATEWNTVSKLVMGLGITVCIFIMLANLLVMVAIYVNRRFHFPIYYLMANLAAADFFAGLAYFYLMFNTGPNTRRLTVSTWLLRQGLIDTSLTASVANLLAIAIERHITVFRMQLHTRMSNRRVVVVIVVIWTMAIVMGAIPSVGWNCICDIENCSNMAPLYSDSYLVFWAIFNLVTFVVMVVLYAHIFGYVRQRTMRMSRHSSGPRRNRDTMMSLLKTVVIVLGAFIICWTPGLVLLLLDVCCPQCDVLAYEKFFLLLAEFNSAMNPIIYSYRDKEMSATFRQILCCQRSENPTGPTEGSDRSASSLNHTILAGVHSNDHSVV
Protocol: A 1.1 kb cDNA encoding the human LPA1 receptor was cloned from human lung. Human lung RNA (Clontech Laboratories, Inc. USA) was reverse transcribed using the RETROSCRIPT® kit (Ambion, Inc.) and the full-length cDNA for human LPA1 was obtained by PCR of the reverse transcription reaction. The nucleotide sequence of the cloned human LPA1 was determined by sequencing and confirmed to be identical to the published human LPA1 sequence (An et al., Biochem. Biophys. Res. Commun., 231:619 (1997). The cDNA was cloned into the pcDNA5/FRT expression plasmid and transfected in CHO cells using Lipofectamine 2000 (Invitrogen Corp., USA). Clones stably expressing human LPA1 were selected using hygromycin and identified as cells that show Ca-influx in response to LPA.
Human LPA1 or LPA3 expressing CHO cells are seeded at 20,000-45,000 cells per well in a 96-well poly-D-lysine coated plate one or two days before the assay. Prior to the assay, the cells are washed once with PBS and then cultured in serum-free media overnight. […] Cells are the stimulated by the addition of 10 nM LPA and intracellular Ca^2+ measured using the FLEXSTATION® 3 (Molecular Devices). IC50s are determined using GraphPad prism analysis of drug titration curves.

renal fibrosis = details: compared with LPA1 (−/−) mice; cited from earlier work
[3] = test system: highly peritoneal metastatic pancreatic cancer cell line; details: cited from earlier work

IC50 [2] [nM] | Structure (SMILES) | other results
 | Cc1noc(-c2ccc(-c3ccc(C4(C(=O)O)CC4)cc3)cc2)c1C(O)c1cn(Cc2ccccc2)nn1 (single isomer, unassigned) [Compound 19, 1-(4′-{4-[(1-Benzyl-1H-[1,2,3]triazol-4-yl)-hydroxy-methyl]-3-methyl-isoxazol-5-yl}-biphenyl-4-yl)-cyclopropanecarboxylic acid] | collagen concentration in broncheoalveolar lavage fluid (BALF) [1]: significantly reduced; total protein concentration in broncheoalveolar lavage fluid (BALF) [1]: significantly reduced
< 100 | Cc1noc(-c2ccc(-c3ccc(C4(C(=O)O)CC4)cc3)cc2)c1Nc1cc(-c2ccccc2)ccn1 [Compound 67, 1-{4′-[3-Methyl-4-(4-phenyl-pyridin-2-ylamino)-isoxazol-5-yl]-biphenyl-4-yl}-cyclopropanecarboxylic acid] | 
< 100 | Cc1noc(-c2ccc(-c3ccc(C4(C(=O)O)CC4)cc3)cc2)c1Nc1cncc(-c2cccc(C(F)(F)F)c2)c1 [Compound 68, 1-(4′-{3-Methyl-4-[5-(3-trifluoromethyl-phenyl)-pyridin-3-ylamino]-isoxazol-5-yl}-biphenyl-4-yl)-cyclopropanecarboxylic acid] | 
< 100 | COc1ccc(F)cc1-c1cccc(Nc2c(C)noc2-c2ccc(-c3ccc(C4(C(=O)O)CC4)cc3)cc2)n1 [Compound 75, 1-(4′-{4-[6-(5-Fluoro-2-methoxy-phenyl)-pyridin-2-ylamino]-3-methyl-isoxazol-5-yl}-biphenyl-4-yl)-cyclopropanecarboxylic acid] | 
< 100 | Cc1noc(-c2ccc(-c3ccc(C4(C(=O)O)CC4)cc3)cc2)c1Nc1cccc(-c2cc(F)ccc2Cl)n1 [Compound 79, 1-(4′-{4-[6-(2-Chloro-5-fluoro-phenyl)-pyridin-2-ylamino]-3-methyl-isoxazol-5-yl}-biphenyl-4-yl)-cyclopropanecarboxylic acid] | 
< 100 | Cc1noc(-c2ccc(-c3ccc(C4(C(=O)O)CC4)cc3)cc2)c1Nc1cccc(-c2cccc(F)c2Cl)n1 [Compound 81, 1-(4′-{4-[6-(2-Chloro-3-fluoro-phenyl)-pyridin-2-ylamino]-3-methyl-isoxazol-5-yl}-biphenyl-4-yl)-cyclopropanecarboxylic acid] | 
< 100 | Cc1noc(-c2ccc(-c3ccc(C4(C(=O)O)CC4)cc3)cc2)c1Nc1cncc(-c2cccc(F)c2Cl)c1 [Compound 82, 1-(4′-{4-[5-(2-Chloro-3-fluoro-phenyl)-pyridin-3-ylamino]-3-methyl-isoxazol-5-yl}-biphenyl-4-yl)-cyclopropanecarboxylic acid] | 
< 100 | Cc1noc(-c2ccc(-c3ccc(C4(C(=O)O)CC4)cc3)cc2)c1Nc1cccc(-c2cccc(F)c2C)n1 [Compound 83, 1-(4′-{4-[6-(3-Fluoro-2-methyl-phenyl)-pyridin-2-ylamino]-3-methyl-isoxazol-5-yl}-biphenyl-4-yl)-cyclopropanecarboxylic acid] | 
 | Cc1noc(-c2ccc(-c3ccc(C4(C(=O)O)CC4)cc3)cc2)c1Nc1cccc(-c2cccc(C(F)(F)F)c2Cl)n1 [Compound 84, 1-(4′-{4-[6-(2-Chloro-3-trifluoromethyl-phenyl)-pyridin-2-ylamino]-3-methyl-isoxazol-5-yl}-biphenyl-4-yl)-cyclopropanecarboxylic acid] | IC50 (human LPA1): 300 to 1000 nM
< 100 | Cc1noc(-c2ccc(-c3ccc(C4(C(=O)NS(C)(=O)=O)CC4)cc3)cc2)c1Nc1cccc(Cc2ccccc2)n1 [Compound 95, N-(1-{4′-[4-(6-Benzyl-pyridin-2-ylamino)-3-methyl-isoxazol-5-yl]-biphenyl-4-yl}-cyclopropanecarbonyl)-methanesulfonamide] | 
 | Cc1noc(-c2ccc(CSCCC(=O)O)cc2)c1NC(=O)OC(C)c1ccccc1Cl (stereo not shown) [Ki16425] | development of renal fibrosis in UUO mice (renal fibrosis): closely resembled the LPA1 (−/−) mice; LPA-induced and ascites-induced invasion activity [3]: blocked
